Measurements taken from ChEMBL document CHEMBL4602677, “Protective Effects of Compounds from Cimicifuga dahurica against Amyloid Beta Production in Vitro and Scopolamine-Induced Memory Impairment in Vivo” (J Nat Prod, 2020).
Values belong to the compound of their own block, whether it stands above or below them. The source made the active and inactive calls. No cut-off for these calls is given here.

Columns and labels:
CHO [1] = experiment: Inhibition of gamma secretase in CHO cells stably expressing amyloid precursor protein assessed as reduction in Abeta42 levels at 10 uM by ELISA relative to control; assay type: cell-based; conditions: Cricetulus griseus
[2] = Inhibition of gamma secretase in CHO cells stably expressing amyloid precursor protein assessed as reduction in Abeta42 levels by ELISA; assay type: cell-based; conditions: Cricetulus griseus
[3] = (§1) Inhibition of BACE1 in CHO cells stably expressing amyloid precursor protein assessed as reduction in sAPPbeta expression after 24 hrs by Western blot analysis; assay type: cell-based; conditions: Cricetulus griseus
CHO [4] = experiment: as §1; assay type: cell-based; conditions: Cricetulus griseus
[5] = (§2) Inhibition of BACE1 in CHO cells stably expressing amyloid precursor protein after 24 hrs by Western blot analysis; assay type: cell-based, Cricetulus griseus
CHO [6] = experiment: as §2; assay type: cell-based; conditions: Cricetulus griseus
CHO [7] = experiment: Cytotoxicity against CHO cells stably expressing amyloid precursor protein at 2.5 to 10 uM after 24 hrs by MTT assay; assay type: cell-based, Cricetulus griseus; conditions: chinese hamster
Mus musculus [8] = experiment: Neuroprotective activity against scopolamine-induced memory impairment in ICR mouse assessed as increase in hippocampal phosphorylated ERK level at 2.5 to 5 mg/kg, po administered for 7 days by Western blot analysis; assay type: functional, organism-based
CHO [9] = experiment: Inhibition of BACE1 in CHO cells stably expressing amyloid precursor protein assessed as sAPPbeta level at 10 uM after 24 hrs by Western blot analysis relative to control; assay type: cell-based; conditions: Cricetulus griseus
Mus musculus [10] = experiment: Cognitive enhancing effect in ICR mouse model of scopolamine-Induced memory impairment assessed as escape latency time at 2.5 mg/kg, po administered for 7 days and measured after 60 mins at first day of training session by Morris water maze test (reference value: 84.5 +/- 4.6 secs); assay type: functional
Mus musculus [11] = experiment: Cognitive enhancing effect in ICR mouse model of scopolamine-Induced memory impairment assessed as escape latency time at 2.5 mg/kg, po administered for 7 days and measured after 60 mins at 5th day of training session by Morris water maze test (reference value: 77.5 +/- 6.6 secs); assay type: functional
Mus musculus [12] = experiment: Cognitive enhancing effect in ICR mouse model of scopolamine-Induced memory impairment assessed as escape latency time at 5 mg/kg, po administered for 7 days and measured after 60 mins at first day of training session by Morris water maze test (reference value: 84.5 +/- 4.6 secs); assay type: functional
Mus musculus [13] = experiment: Cognitive enhancing effect in ICR mouse model of scopolamine-Induced memory impairment assessed as escape latency time at 5 mg/kg, po administered for 7 days and measured after 60 mins at 5th day of training session by Morris water maze test (reference value: 77.5 +/- 6.6 secs); assay type: functional
Mus musculus [14] = experiment: Cognitive enhancing effect in po dosed ICR mouse model of scopolamine-Induced memory impairment assessed as increase in time spent in target quadrant administered for 7 days and measured on day 6 by Morris water maze test; assay type: functional, organism-based
Mus musculus [15] = experiment: Cognitive enhancing effect in ICR mouse model of scopolamine-Induced memory impairment assessed as time spent in target quadrant at 1.25 mg/kg, po administered for 7 days and measured on day 6 by Morris water maze test (reference value: 14.48 +/- 1.6 secs); assay type: functional
Mus musculus [16] = experiment: Cognitive enhancing effect in ICR mouse model of scopolamine-Induced memory impairment assessed as time spent in target quadrant at 5 mg/kg, po administered for 7 days and measured on day 6 by Morris water maze test (reference value: 14.48 +/- 1.6 secs); assay type: functional
Mus musculus [17] = experiment: Cognitive enhancing effect in ICR mouse model of scopolamine-Induced memory impairment assessed as time spent in target quadrant at 2.5 mg/kg, po administered for 7 days and measured on day 6 by Morris water maze test (reference value: 14.48 +/- 1.6 secs); assay type: functional
Mus musculus [18] = experiment: Reversal of scopolamine-induced amnesic effect in ICR mouse assessed as step-through latecy time at 1.25 mg/kg, po administered for 7 days followed by scopolamine challenge 30 mins prior to test by passive avoidance test (reference value: 10.80 +/- 4.1 secs); assay type: functional
Mus musculus [19] = experiment: Reversal of scopolamine-induced amnesic effect in ICR mouse assessed as step-through latecy time at 2.5 mg/kg, po administered for 7 days followed by scopolamine challenge 30 mins prior to test by passive avoidance test (reference value: 10.80 +/- 4.1 secs); assay type: functional
Mus musculus [20] = experiment: Reversal of scopolamine-induced amnesic effect in ICR mouse assessed as step-through latecy time at 5 mg/kg, po administered for 7 days followed by scopolamine challenge 30 mins prior to test by passive avoidance test (reference value: 10.80 +/- 4.1 secs); assay type: functional
Mus musculus [21] = experiment: Cognitive enhancing effect in ICR mouse model of scopolamine-induced short-term memory impairment assessed as increase in spontaneous alteration at 5 mg/kg, po administered for 7 days followed by scopolamine challenge 30 mins prior to test by Y-maze test; assay type: functional
Mus musculus [22] = experiment: Memory improvement effect in ICR mouse model of scopolamine-induced memory impairment assessed as discrimination index at 2.5 mg/kg, po administered for 7 days followed by scopolamine challenge 30 mins prior to test by object recognition test (reference value: 60.14 +/- 2.1%); assay type: functional
Mus musculus [23] = experiment: Memory improvement effect in ICR mouse model of scopolamine-induced memory impairment assessed as discrimination index at 5 mg/kg, po administered for 7 days followed by scopolamine challenge 30 mins prior to test by object recognition test (reference value: 60.14 +/- 2.1%); assay type: functional
Mus musculus [24] = experiment: Neuroprotective activity against scopolamine-induced memory impairment in ICR mouse assessed as increase in cortical phosphorylated CREB level at 1.25 to 2.5 mg/kg, po administered for 7 days by Western blot analysis; assay type: functional, organism-based
Mus musculus [25] = experiment: Neuroprotective activity against scopolamine-induced memory impairment in ICR mouse assessed as increase in cortical phosphorylated AKT level at 5 mg/kg, po administered for 7 days by Western blot analysis; assay type: functional, organism-based
Mus musculus [26] = experiment: Neuroprotective activity against scopolamine-induced memory impairment in ICR mouse assessed as increase in hippocampal phosphorylated CREB level at 5 mg/kg, po administered for 7 days by Western blot analysis; assay type: functional, organism-based
Mus musculus [27] = experiment: Neuroprotective activity against scopolamine-induced memory impairment in ICR mouse assessed as increase in hippocampal phosphorylated AKT level at 2.5 to 5 mg/kg, po administered for 7 days by Western blot analysis; assay type: functional, organism-based
Mus musculus [28] = experiment: Neuroprotective activity against scopolamine-induced memory impairment in ICR mouse assessed as increase in cortical phosphorylated ERK level at 1.25 to 5 mg/kg, po administered for 7 days by Western blot analysis; assay type: functional, organism-based
Mus musculus [29] = experiment: Suppression of AChE in ICR mouse model of scopolamine-induced memory impairment assessed as reduction in protein activity in hippocampus at 5 mg/kg,po administered for 7 days by Ellman's method; assay type: functional, organism-based

IC50 [2]: 14.4 µM
IC50 [3]: 8.3 µM
IC50 [5]: 7.8 µM
Structure (SMILES): CC(=O)O[C@@H]1[C@H](O)[C@@H](O)[C@H](O[C@H]2CC[C@]34C[C@]35CC[C@]3(C)[C@H]6[C@H](C)C[C@H]([C@@H](OC(C)=O)C(C)(C)O)O[C@@]6(O)[C@H](O)[C@@]3(C)C5=CC[C@H]4C2(C)C)O[C@@H]1CO
inhibition (CHO [1]): 34.7%
inhibition (CHO [4]): Dose-dependent effect
inhibition (CHO [6]): Dose-dependent effect
Activity (CHO [7]): Non-Toxic

Structure (SMILES): CC(=O)O[C@H]([C@H]1C[C@@H](C)[C@H]2[C@@](O)(O1)[C@H](O)[C@@]1(C)C3=CC[C@H]4C(C)(C)[C@@H](O[C@@H]5OC[C@@H](O)[C@H](O)[C@H]5O)CC[C@@]45C[C@@]35CC[C@]21C)C(C)(C)O
Activity (Mus musculus [8]): Active
inhibition (CHO [1]): 61.7%
IC50 [2]: 8.1 µM
inhibition (CHO [9]): 20%
IC50 [3]: 6.1 µM
inhibition (CHO [4]): Dose-dependent effect
IC50 [5]: 7.1 µM
inhibition (CHO [6]): Dose-dependent effect
Time (Mus musculus [10]): 80.7 s
Time (Mus musculus [11]): 49.4 s
Time (Mus musculus [12]): 76 s
Time (Mus musculus [13]): 48.1 s
Activity (Mus musculus [14]): Dose-dependent effect
Time (Mus musculus [15]): 18.43 s
Time (Mus musculus [16]): 25.86 s
Time (Mus musculus [17]): 20.4 s
Time (Mus musculus [18]): 14.5 s
Time (Mus musculus [19]): 28.8 s
Time (Mus musculus [20]): 46.9 s
Activity (Mus musculus [21]): 11.6%
Activity (Mus musculus [22]): 64.29%
Activity (Mus musculus [23]): 68%
Activity (Mus musculus [24]): Active
Activity (Mus musculus [25]): Active
Activity (Mus musculus [26]): Active
Activity (Mus musculus [27]): Active
Activity (Mus musculus [28]): Active
Activity (Mus musculus [29]): Active
Activity (CHO [7]): Non-Toxic

IC50 [2]: 6.2 µM
IC50 [3]: 4.3 µM
IC50 [5]: 6.2 µM
Structure (SMILES): C[C@@H]1C[C@H]([C@@H](O)C(C)(C)O)O[C@H]2C(=O)[C@@]3(C)C4=C(CC[C@]3(C)[C@@H]12)C[C@]12CC[C@H](O1)C(C)(C)[C@@H]2CC4
inhibition (CHO [1]): 80.6%
inhibition (CHO [9]): 20%
inhibition (CHO [4]): Dose-dependent effect
inhibition (CHO [6]): Dose-dependent effect
Activity (CHO [7]): Non-Toxic

IC50 [2]: 10.1 µM
IC50 [3]: 7.1 µM
IC50 [5]: 8.1 µM
Structure (SMILES): COC(C)(C)[C@H]1O[C@@]23O[C@@H]1C[C@@H](C)[C@@H]2[C@@]1(C)CC[C@@]24C[C@@]25CC[C@H](O[C@@H]2OC[C@@H](O)[C@H](O)[C@H]2O)C(C)(C)[C@@H]5CC=C4[C@]1(C)[C@H]3O
inhibition (CHO [1]): 48.9%
inhibition (CHO [9]): 20%
inhibition (CHO [4]): Dose-dependent effect
inhibition (CHO [6]): Dose-dependent effect
Activity (CHO [7]): Non-Toxic
